Measurements published in ChEMBL document CHEMBL5038643, “Phytochemical Investigation of the Roots of Ipomoea asarifolia and Antiproliferative Activity of the Isolated Compounds against Multiple Myeloma Cells” (J Nat Prod, 2022).
Active and inactive are the calls of the source. The calls are words filed in the database; no cut-off is given here.

What was measured:
[1] = test system: MM1.S; experiment: Antiproliferative activity against dexamethasone-sensitive human MM.1S cells assessed as reduction in cell viability at 10 uM measured after 72 hrs by XTT assay; assay type: functional, cell-based
[2] = test system: RPMI-8226; experiment: Antiproliferative activity against human RPMI 8226 cells assessed as reduction in cell viability measured after 72 hrs by XTT assay; assay type: functional, cell-based; conditions: RPMI-8226, 72 h
[3] = test system: MM.1R; experiment: Antiproliferative activity against dexamethasone-resistant human MM.1R cells assessed as reduction in cell viability at 10 uM measured after 72 hrs by XTT assay; assay type: functional, cell-based
[4] = Antiproliferative activity against dexamethasone-resistant human MM.1R cells assessed as reduction in cell viability measured after 72 hrs by XTT assay; assay type: functional, cell-based
[5] = test system: MM1.S; experiment: Antiproliferative activity against dexamethasone-sensitive human MM.1S cells assessed as reduction in cell viability measured after 72 hrs by XTT assay; assay type: functional, cell-based
[6] = test system: B-cell; experiment: Cytotoxicity against human B lymphocyte assessed as reduction in cell viability at 50 uM measured after 72 hrs by XTT assay; assay type: toxicity, cell-based
[7] = test system: RPMI-8226; experiment: Antiproliferative activity against human RPMI 8226 cells assessed as reduction in cell viability at 10 uM measured after 72 hrs by XTT assay; assay type: functional, cell-based

SMILES | Activity [1] | IC50 [2] | Activity [3] | IC50 [4] | IC50 [5] | Activity [6] | Activity [7]
CCCCCCCCCC(=O)O[C@H]1[C@H](O[C@@H]2[C@H]3OC(=O)CCCCCCCCC[C@H](CCCCC)O[C@@H]4O[C@H](C)[C@H](O)[C@H](O)[C@H]4O[C@H](O[C@H]2C)[C@@H]3O)O[C@@H](C)[C@H](O[C@@H]2O[C@@H](C)[C@H](OC(=O)C(C)C)[C@@H](OC(=O)/C=C/c3ccccc3)[C@H]2O)[C@H]1O[C@@H]1O[C@@H](C)[C@H](O)[C@@H](O)[C@H]1O [PESCAPREIN XXVI] | inactive | > 10 µM | inactive | – | – | – | –
CCCCCCCCCCCC(=O)O[C@H]1[C@H](O[C@@H]2[C@H]3OC(=O)CCCCCCCCC[C@H](CCCCC)O[C@@H]4O[C@H](C)[C@H](O)[C@H](O)[C@H]4O[C@H](O[C@H]2C)[C@@H]3O)O[C@@H](C)[C@H](O[C@@H]2O[C@@H](C)[C@H](OC(=O)CCCCC)[C@@H](O)[C@H]2O)[C@H]1O[C@@H]1O[C@@H](C)[C@H](O)[C@@H](O)[C@H]1O [PESCAPREIN IV] | inactive | 10.8 µM | inactive | > 10 µM | > 10 µM | – | –
CCCCCCCCCCCC(=O)O[C@H]1[C@H](O[C@@H]2[C@H]3OC(=O)CCCCCCCCC[C@H](CCCCC)O[C@@H]4O[C@H](C)[C@H](O)[C@H](O)[C@H]4O[C@H](O[C@H]2C)[C@@H]3O)O[C@@H](C)[C@H](O[C@@H]2O[C@@H](C)[C@H](OC(=O)[C@@H](C)CC)[C@@H](OC(=O)/C=C/c3ccccc3)[C@H]2O)[C@H]1O[C@@H]1O[C@@H](C)[C@H](O)[C@@H](O)[C@H]1O [PESCAPREIN XXI] | inactive | > 10 µM | inactive | – | – | – | –
CCCCCCCCCCCCCCCCOC(=O)/C=C/c1ccc(O)cc1 | inactive | – | inactive | – | – | – | –
CCCCCCCCCCCCCCCCOC(=O)/C=C/c1ccc(O)c(O)c1 | inactive | 3 µM | inactive | > 10 µM | > 10 µM | Non-Toxic | –
CC(C)C[C@H](NC(=O)[C@H](Cc1ccccc1)NC(=O)c1cnccn1)B(O)O [BORTEZOMIB] | inactive | 0.0045 µM | inactive | 0.0048 µM | 0.0026 µM | – | –
CCCCCCCCCCCCCCCCCCOC(=O)/C=C/c1ccc(O)cc1 | inactive | – | inactive | – | – | – | –
CCCCCCCCCC(=O)O[C@H]1[C@H](O[C@@H]2[C@H]3OC(=O)CCCCCCCCC[C@H](CCCCC)O[C@@H]4O[C@H](C)[C@H](O)[C@H](O)[C@H]4O[C@H](O[C@H]2C)[C@@H]3O)O[C@@H](C)[C@H](O[C@@H]2O[C@@H](C)[C@H](OC(=O)[C@@H](C)CC)[C@@H](OC(=O)/C=C/c3ccccc3)[C@H]2O)[C@H]1O[C@@H]1O[C@@H](C)[C@H](O)[C@@H](O)[C@H]1O [PESCAPREIN XXIII] | inactive | > 10 µM | inactive | – | – | – | –
C[C@H](CO)CC(=O)C[C@@H](C)CCC(=O)c1ccoc1 | inactive | > 10 µM | inactive | – | – | – | –
CCCCCCCCCCCC(=O)O[C@H]1[C@H](O[C@@H]2[C@H]3OC(=O)CCCCCCCCC[C@H](CCCCC)O[C@@H]4O[C@H](C)[C@H](O)[C@H](O)[C@H]4O[C@H](O[C@H]2C)[C@@H]3O)O[C@@H](C)[C@H](O[C@@H]2O[C@@H](C)[C@H](OC(=O)C(C)C)[C@@H](OC(=O)/C=C/c3ccccc3)[C@H]2O)[C@H]1O[C@@H]1O[C@@H](C)[C@H](O)[C@@H](O)[C@H]1O [PESCAPREIN XXV] | inactive | > 10 µM | inactive | – | – | – | –
CCCCCCCCCC(=O)O[C@H]1[C@H](O[C@@H]2[C@H]3OC(=O)CCCCCCCCC[C@H](CCCCC)O[C@@H]4O[C@H](C)[C@H](O)[C@H](O)[C@H]4O[C@H](O[C@H]2C)[C@@H]3O)O[C@@H](C)[C@H](O[C@@H]2O[C@@H](C)[C@H](OC(=O)[C@@H](C)CC)[C@@H](O)[C@H]2O)[C@H]1O[C@@H]1O[C@@H](C)[C@H](O)[C@@H](O)[C@H]1O [STOLONIFERIN III] | inactive | 7.7 µM | inactive | > 10 µM | > 10 µM | – | –
CCCCCCCCCCCC(=O)O[C@H]1[C@H](O[C@@H]2[C@H]3OC(=O)CCCCCCCCC[C@H](CCCCC)O[C@@H]4O[C@H](C)[C@H](O)[C@H](O)[C@H]4O[C@H](O[C@H]2C)[C@@H]3O)O[C@@H](C)[C@H](O[C@@H]2O[C@@H](C)[C@H](OC(=O)CCCCCCC)[C@@H](O)[C@H]2O)[C@H]1O[C@@H]1O[C@@H](C)[C@H](O)[C@@H](O)[C@H]1O | inactive | > 10 µM | inactive | – | – | – | inactive
CCCCCCCCCCCCCCCCCCOC(=O)/C=C/c1ccc(O)c(O)c1 | inactive | 9.4 µM | inactive | > 10 µM | > 10 µM | Non-Toxic | –
CCCCCCCCCCCCCCCCCCCCOC(=O)/C=C/c1ccc(O)cc1 | inactive | – | inactive | – | – | – | –
CCCCCCCCCCCC(=O)O[C@H]1[C@H](O[C@@H]2[C@H]3OC(=O)CCCCCCCCC[C@H](CCCCC)O[C@@H]4O[C@H](C)[C@H](O)[C@H](O)[C@H]4O[C@H](O[C@H]2C)[C@@H]3O)O[C@@H](C)[C@H](O[C@@H]2O[C@@H](C)[C@H](OC(=O)[C@@H](C)CC)[C@@H](O)[C@H]2O)[C@H]1O[C@@H]1O[C@@H](C)[C@H](O)[C@@H](O)[C@H]1O [PESCAPREIN III] | inactive | > 10 µM | inactive | – | – | – | –
